From DBAASP come the findings set out here.

Some test systems named below: Bacillus sp. DM-1; Beauveria sp.; Saccharomyces cerevisiae; Escherichia coli BL21AI; Candida albicans.
What all share (assay): ≥ marks a high value that may be exact or a test limit, other limits are often not marked, values filed in µg/mL are converted to µM
In test [1] the test system is Bacillus megaterium CGMCC 1.0459.
The test system of test [2] is Bacillus subtilis CGMCC 1.2428.
The test system of test [3] is Micrococcus luteus CGMCC 1.0290.
Test [4] relates to Bacillus subtilis IFO 3513.
The subject of test [5] is Escherichia coli IFO 12734.
In test [6] the test system is Micrococcus luteus ATCC 9341.
The test system of test [7] is Staphylococcus aureus IFO 12732.
Test [8] has as its system Bacillus megaterium ATCC 19213.
The subject of test [9] is Bacillus subtilis NBRC 3513.
In test [10] the test system is Staphylococcus aureus NBRC 12732.
For test [11], the system named is Staphylococcus epidermidis NBRC 12933.
Test [12] concerns Micrococcus luteus ATCC 10240.
For test [13], the system named is Bacillus subtilis KCTC 1918.
Test [14] concerns Candida albicans TIMM 1768.
Test [15] deals with Pseudomonas aeruginosa KCTC 1637.
For test [16], the system named is Saccharomyces cerevisiae KCTC 7296.
In test [17] the test system is Salmonella typhimurium KCTC 1926.
The subject of test [18] is Staphylococcus epidermidis KCTC 3096.
The subject of test [19] is Trichosporon beigelii KCTC 7707.
The test system of test [20] is Escherichia coli DH5alpha.
Test [21] relates to Penicillium digitatum PHI-26.
Test [22] concerns Saccharomyces cerevisiae FY1679.
The test system of test [23] is Bacillus subtilis KCTC 3068.
The test system of test [24] is Candida albicans KCTC 7965.
Test [25] deals with Escherichia coli KCTC 1682.
Test [26] relates to Staphylococcus aureus KCTC 1621.
Test [27] relates to Staphylococcus epidermidis KCTC 1917.

Molecules are shown by their SMILES. In brackets after ≈: the same amount, converted by molar mass. Several values for one entry are separate records, joined by “and”; a condition that tells them apart may be missing. Equal values may be shown once.

`CC(C)[C@H](NC(=O)[C@H](CS)NC(=O)[C@H](CC(=O)O)NC(=O)CNC(=O)[C@H](CC(N)=O)NC(=O)[C@H](CCCCN)NC(=O)[C@H](CS)NC(=O)[C@H](CCCCN)NC(=O)CNC(=O)CN)C(=O)N[C@@H](CS)C(=O)N[C@@H](CCCN=C(N)N)C(N)=O` [GGKCKNGDCVCR]: the MIC in test [1] was 8.93 µM (≈ 11.1 µg/mL); with Bacillus sp. DM-1, not below 33.8 µM; in [2], 10.8 µM (≈ 13.3 µg/mL); in the test on Beauveria sp. it was 17.7 µM (≈ 21.9 µg/mL); in [3], 26 µM (≈ 32.2 µg/mL); against Saccharomyces cerevisiae it was not below 52 µM.
For the compound `CC[C@H](C)[C@H](N)C(=O)N[C@@H](CC(C)C)C(=O)N1CCC[C@H]1C(=O)N[C@@H](Cc1ccc(O)cc1)C(=O)N[C@@H](CCCCN)C(=O)N[C@@H](Cc1ccc(O)cc1)C(=O)N1CCC[C@H]1C(=O)N[C@@H](Cc1ccc(O)cc1)C(=O)N[C@@H](Cc1ccc(O)cc1)C(=O)N1CCC[C@H]1C(=O)N[C@@H](Cc1ccc(O)cc1)C(=O)N[C@@H](CCCN=C(N)N)C(=O)N[C@@H](CCCN=C(N)N)C(N)=O` [ILPYKYPYYPYRR], the MIC was 14 µM (≈ 25 µg/mL) in [4], not below 55.8 µM in test [5], 6.3 µM (≈ 11.3 µg/mL) in test [6] and 14 µM (≈ 25 µg/mL) in test [7].
With `CC(C)C[C@H](NC(=O)[C@H](CCCCN)NC(=O)[C@H](CC(C)C)NC(=O)[C@H](CC(C)C)NC(=O)[C@H](Cc1c[nH]c2ccccc12)NC(=O)[C@@H](N)CCCN=C(N)N)C(=O)NCC(=O)N[C@@H](Cc1cnc[nH]1)C(=O)N[C@@H](Cc1cnc[nH]1)C(=O)NCC(=O)N[C@@H](CCCN=C(N)N)C(=O)N[C@@H](C)C(=O)N1CCC[C@H]1C(=O)N1CCC[C@H]1C(=O)O` [RWLLKLGHHGRAPP], the MIC in test [8] is not below 64 µM; in test [9], not below 128 µM; in [10], not below 128 µM; in test [11], not below 128 µM.
On to `CC[C@H](C)[C@H](NC(=O)[C@@H]1CCCN1C(=O)[C@H](CCCN=C(N)N)NC(=O)[C@@H]1CCCN1C(=O)[C@H](Cc1cnc[nH]1)NC(=O)[C@H](CO)NC(=O)[C@@H](NC(=O)[C@@H]1CCCN1C(=O)[C@H](CCCN=C(N)N)NC(=O)[C@@H]1CCCN1C(=O)[C@H](CO)NC(=O)[C@H](Cc1ccc(O)cc1)NC(=O)[C@@H]1CCCN1C(=O)[C@H](CCCN=C(N)N)NC(=O)[C@@H]1CCCN1C(=O)[C@H](CCCCN)NC(=O)CN)[C@@H](C)O)C(=O)N[C@@H](CCCN=C(N)N)C(=O)N[C@H](C(N)=O)C(C)C` [GKPRPYSPRPTSHPRPIRV], for which the MIC against Escherichia coli BL21AI was determined as 29.1 µM (≈ 64 µg/mL); in test [12], 0.455 µM (≈ 0.999 µg/mL).
On to `CC(C)C[C@H](NC(=O)[C@H](CCCCN)NC(=O)[C@H](CCCCN)NC(=O)[C@H](CC(C)C)NC(=O)[C@H](CC(C)C)NC(=O)[C@H](CCCCN)NC(=O)[C@H](CCCCN)NC(=O)[C@H](CC(C)C)NC(=O)[C@H](CC(C)C)NC(=O)[C@@H]1CCCN1C(=O)[C@@H](N)CCCCN)C(N)=O` [KPLLKKLLKKL], for which the MIC worked out at 6.3 µM (≈ 8.32 µg/mL) in test [13]; 25 µM (≈ 33 µg/mL) in [14]; 3.1 µM (≈ 4.09 µg/mL) in [15]; 12.5 µM (≈ 16.5 µg/mL) in [16]; 0.4 µM (≈ 0.528 µg/mL) in [17]; 6.3 µM (≈ 8.32 µg/mL) in test [18]. In addition, the MIC in [19] was found to be 6.3 µM (≈ 8.32 µg/mL).
Turning to `CC(=O)N[C@@H](CCCN=C(N)N)C(=O)N[C@@H](CCCCN)C(=O)N[C@@H](CCCCN)C(=O)N[C@@H](Cc1c[nH]c2ccccc12)C(=O)N[C@@H](Cc1ccccc1)C(=O)N[C@@H](Cc1c[nH]c2ccccc12)C(N)=O` [RKKWFW], the MIC in the test with Candida albicans was 132 µM (≈ 130 µg/mL); in test [20], not below 32 µM; in test [21], 4 µM and 6 µM; in test [22], not below 32 µM.
In the case of `CC(C)C[C@H](NC(=O)[C@H](CC(C)C)NC(=O)[C@H](CCCCN)NC(=O)[C@H](CCCCN)NC(=O)[C@H](CC(C)C)NC(=O)[C@H](CC(C)C)NC(=O)[C@H](CCCCN)NC(=O)[C@H](CC(C)C)NC(=O)[C@H](Cc1c[nH]c2ccccc12)NC(=O)[C@H](CCCCN)NC(=O)[C@H](CCCCN)NC(=O)[C@H](CC(C)C)NC(=O)[C@H](CC(C)C)NC(=O)[C@H](CCCCN)NC(=O)[C@H](CCCCN)NC(=O)[C@H](CC(C)C)NC(=O)[C@@H](N)CCCCN)C(=O)N[C@@H](CCCCN)C(N)=O` [KLKKLLKKWLKLLKKLLK], the MIC is 4 µM (≈ 9.05 µg/mL) in test [23]; 11.3 µM (≈ 25.6 µg/mL) in [24]; 8 µM (≈ 18.1 µg/mL) in test [25]; 8 µM (≈ 18.1 µg/mL) in test [15]; 4 µM (≈ 9.05 µg/mL) in test [17]; 8 µM (≈ 18.1 µg/mL) in test [26]. The MIC in test [27] was determined as 8 µM (≈ 18.1 µg/mL).

The term MIC denotes the lowest concentration found to suppress growth.
